Non-standard residues stand in square brackets, D forms with d. Residues, ends and D or L forms follow the SMILES beside them.
Tests used:
[1] = system: COLO-205 colon carcinoma xenograft; assay: COLO-205 colon carcinoma xenograft model, daily IP; assay type: in vivo, mouse; settings: for Tumor response: 30 mg/kg IP daily for 28 days
Procedure: (§1) Efficacy of GO-203-2, the reduced form of GO-203-2c that is responsible for binding to and inhibiting oligomerization of MUC1-CD was evaluated in several different human tumor xenograft models. For these studies BALB/c nu/nu mice (6-7 weeks old; Charles River Laboratories, Wilmington, Mass.) were injected with 10 million COLO-205 colon carcinoma, MiaPaCa pancreatic carcinoma or SKOV3 ovarian carcinoma cells in the right thigh. When tumors reached a predetermined size (80-125 mm^3), mice were randomized into groups of 8 animals and treatment was initiated, which consisted of daily IP injection of GO-203-2 (30 mg/kg), control peptide CP-2 (30 mg/kg) or PBS vehicle control for 28 days. Mice with tumors in excess of ˜2 g or with ulcerated tumors were euthanized, as were those found in obvious distress or in a moribund condition. Mice without palpable tumors were maintained until 90 to 100 days after treatment initiation to confirm lack of re-growth. In addition, animals were weighed periodically during the treatment period and examined for clinical signs of toxicity.

[2] = system: MiaPaCa pancreatic carcinoma xenograft; assay: MiaPaCa pancreatic carcinoma xenograft model, daily IP; assay type: in vivo, mouse; settings: for Tumor response: 30 mg/kg IP daily for 28 days
Procedure: as §1

[3] = system: SKOV3 ovarian carcinoma xenograft; assay: SKOV3 ovarian carcinoma xenograft model, daily IP; assay type: in vivo, mouse; settings: for Tumor response: 30 mg/kg IP daily for 28 days
Procedure: as §1

[4] = Clinical signs of toxicity in xenograft-bearing mice; assay type: in vivo, mouse; settings: 30 mg/kg IP daily for 28 days
Procedure: as §1

[5] = system: ZR-75-1 Breast cancer cells; assay: Inhibition of cell proliferation, trypan blue exclusion (Table 1); assay type: cell-based, human; settings: 5 μM peptide every day, 6-day treatment
Procedure: (§2) Cells (ZR-75-1 breast carcinoma or H-1975 non-small cell lung carcinoma) were plated separately in 24-well plates for 24 hours prior to treatment with different peptides. The cells were then treated with 5 μM (final concentration) of different peptides every day for 4-6 days. On the day of termination, cells were washed two times with PBS and trypsinized with 0.3 ml of Trypsin/EDTA. Cell growth media was used to stop the trypsin reaction. Following washing, the cells were centrifuged and the cell pellets were re-suspended in PBS for counting in hemacytometer.
(§3) The trypan blue dye exclusion method was used to determine the number of viable cells present in a cell suspension. Cell suspension was mixed as 1:1 with the trypan blue dye and then visually examined in a hemacytometer. A viable cell will have a clear cytoplasm whereas a non-viable/dead cell will be stained with trypan blue dye. By doing this trypan blue exclusion method, viable cell numbers were counted and percent inhibition of proliferation was then calculated comparing with untreated controls.

[6] = system: H1975 Lung cancer cells; assay: Inhibition of cell proliferation, trypan blue exclusion (Table 2); assay type: cell-based, human; settings: 5 μM peptide every day, 6-day treatment
Procedure: as §2, §3

[7] = system: human carcinoma cell lines
Procedure: A series of in vitro and in vivo primary pharmacodynamic studies was conducted to assess efficacy and mechanism of action of GO-203-2c in human tumor cells.
GO-203-2 and GO-203-2c were evaluated for ability to inhibit proliferation of murine and human carcinoma cell lines in vitro. Test compound (5 μM final concentration) was added to tumor cell cultures daily for 5 to 6 days, and cell viability was determined by trypan blue dye exclusion.

[8] = biological target: T1, His-tagged MUC1-CD (Homo sapiens, UniProt P15941); assay: Oligomerization of purified His-tagged MUC1-CD proteins in a cell-free system; assay type: biochemical
T1 construct: contains a 72-amino acid cytoplasmic domain (MUC1-CD)
T1 sequence (P15941 1182-1255 limits assumed): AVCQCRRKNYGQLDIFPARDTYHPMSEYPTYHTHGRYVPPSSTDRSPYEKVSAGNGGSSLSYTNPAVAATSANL
Source text: This finding is not surprising based on a requirement for the cysteine residues in the GO-203-2 binding domain (CQCRRKN) to be available for binding with cysteine residues on the corresponding binding domain of the MUC1-CD protein.

[9] = system: His-tagged MUC1-CD; assay: Cell-free oligomerization of purified His-tagged MUC1-CD, species comparison; assay type: biochemical; settings: MUC1-CD from rat, dog and human compared
Procedure: (§4) Studies were also conducted to confirm pharmacological relevance of the rodent and nonrodent species chosen for toxicology studies, namely the rat and dog, respectively. MUC1-CD amino acid sequence was determined to be greater than 80% identical between rat, dog and human proteins, and similar expression of MUC1 was found in stomach, intestinal and lung epithelium from the different species using immunohistochemical staining. […] The results of these studies indicate that potential MUC1-CD targets in the rat, dog and human are similar with respect to sequence, tissue expression and responsiveness to inhibition of oligomerization by GO-203-2c, and confirm pharmacological relevance of the species chosen for nonclinical safety assessment of GO-203-2c.

[10] = system: MUC1-CD; assay: MUC1-CD oligomerization in transfected HEK 293T cells, species comparison; assay type: cell-based; settings: MUC1-CD from rat, dog and human compared
Procedure: as §4

[11] = biological target: adrenergic α1A receptor (Homo sapiens, UniProt P35348); assay: biochemical
adrenergic α1A receptor, sequence (P35348 whole entry): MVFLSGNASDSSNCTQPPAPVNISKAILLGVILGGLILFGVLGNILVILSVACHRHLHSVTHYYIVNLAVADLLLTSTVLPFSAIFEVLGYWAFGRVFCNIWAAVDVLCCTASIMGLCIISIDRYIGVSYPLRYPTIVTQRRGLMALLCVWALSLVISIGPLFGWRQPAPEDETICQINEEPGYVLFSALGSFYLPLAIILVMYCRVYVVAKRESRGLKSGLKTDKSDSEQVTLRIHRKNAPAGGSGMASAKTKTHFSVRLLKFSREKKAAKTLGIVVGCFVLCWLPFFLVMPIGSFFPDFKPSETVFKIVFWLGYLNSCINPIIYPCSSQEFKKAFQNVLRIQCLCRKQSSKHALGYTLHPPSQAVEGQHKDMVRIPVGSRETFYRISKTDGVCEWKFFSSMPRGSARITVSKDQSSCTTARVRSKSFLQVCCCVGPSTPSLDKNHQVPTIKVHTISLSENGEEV

[12] = biological target: adrenergic α1B receptor (Homo sapiens, UniProt P35368); assay: biochemical
adrenergic α1B receptor, sequence (P35368 whole entry): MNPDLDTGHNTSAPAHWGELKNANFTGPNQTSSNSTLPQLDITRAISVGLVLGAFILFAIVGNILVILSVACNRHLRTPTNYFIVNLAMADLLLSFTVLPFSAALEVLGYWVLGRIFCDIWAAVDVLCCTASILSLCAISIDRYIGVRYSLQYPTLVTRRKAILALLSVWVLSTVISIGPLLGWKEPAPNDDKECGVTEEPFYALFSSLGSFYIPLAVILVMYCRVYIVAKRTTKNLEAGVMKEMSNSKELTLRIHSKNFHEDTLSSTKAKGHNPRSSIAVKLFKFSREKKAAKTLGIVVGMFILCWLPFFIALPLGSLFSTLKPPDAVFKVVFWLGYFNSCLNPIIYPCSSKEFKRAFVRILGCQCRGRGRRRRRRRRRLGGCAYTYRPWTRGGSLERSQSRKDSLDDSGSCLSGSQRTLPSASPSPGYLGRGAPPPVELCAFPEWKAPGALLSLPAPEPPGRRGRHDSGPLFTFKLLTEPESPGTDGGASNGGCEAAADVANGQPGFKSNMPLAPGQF

[13] = biological target: T2, norepinephrine transporter (Homo sapiens, UniProt P23975); assay: biochemical
T2 sequence (P23975 whole entry, species assumed): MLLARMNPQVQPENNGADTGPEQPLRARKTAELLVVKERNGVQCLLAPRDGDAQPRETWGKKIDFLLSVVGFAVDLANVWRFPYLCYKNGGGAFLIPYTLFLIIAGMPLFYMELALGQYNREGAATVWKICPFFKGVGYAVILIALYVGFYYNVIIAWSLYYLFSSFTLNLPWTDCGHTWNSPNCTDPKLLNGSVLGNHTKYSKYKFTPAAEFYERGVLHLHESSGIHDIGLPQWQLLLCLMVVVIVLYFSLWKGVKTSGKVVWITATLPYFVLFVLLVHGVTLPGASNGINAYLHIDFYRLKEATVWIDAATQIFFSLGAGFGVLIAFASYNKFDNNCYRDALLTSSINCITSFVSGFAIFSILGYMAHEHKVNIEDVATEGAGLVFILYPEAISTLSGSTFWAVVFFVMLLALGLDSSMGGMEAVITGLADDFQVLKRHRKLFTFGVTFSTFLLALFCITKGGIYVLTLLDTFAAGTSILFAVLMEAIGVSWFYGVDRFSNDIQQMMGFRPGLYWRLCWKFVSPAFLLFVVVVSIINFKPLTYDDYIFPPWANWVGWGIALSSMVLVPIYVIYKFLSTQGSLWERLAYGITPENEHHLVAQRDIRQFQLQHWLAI

[14] = biological target: T3, muscarinic M2 receptor (Homo sapiens, UniProt P08172); assay: biochemical
T3 sequence (P08172 whole entry): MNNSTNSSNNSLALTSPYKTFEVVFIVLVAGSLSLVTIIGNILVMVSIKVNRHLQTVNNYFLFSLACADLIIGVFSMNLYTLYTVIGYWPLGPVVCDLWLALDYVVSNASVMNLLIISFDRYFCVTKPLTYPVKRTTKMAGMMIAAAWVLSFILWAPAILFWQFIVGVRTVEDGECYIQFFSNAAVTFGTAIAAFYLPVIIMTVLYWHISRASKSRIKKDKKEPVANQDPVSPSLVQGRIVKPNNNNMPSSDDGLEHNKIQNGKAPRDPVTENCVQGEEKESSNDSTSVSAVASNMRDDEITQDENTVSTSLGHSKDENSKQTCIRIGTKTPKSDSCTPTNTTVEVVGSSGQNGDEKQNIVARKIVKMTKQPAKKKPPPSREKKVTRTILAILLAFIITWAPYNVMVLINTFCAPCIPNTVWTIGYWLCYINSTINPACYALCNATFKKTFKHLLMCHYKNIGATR

[15] = biological target: nicotinic acetylcholine α1 (bungarotoxin) receptor (Homo sapiens, UniProt P02708+P07510+Q07001); assay: biochemical
nicotinic acetylcholine α1 (bungarotoxin) receptor, sequence (P07510 23-517): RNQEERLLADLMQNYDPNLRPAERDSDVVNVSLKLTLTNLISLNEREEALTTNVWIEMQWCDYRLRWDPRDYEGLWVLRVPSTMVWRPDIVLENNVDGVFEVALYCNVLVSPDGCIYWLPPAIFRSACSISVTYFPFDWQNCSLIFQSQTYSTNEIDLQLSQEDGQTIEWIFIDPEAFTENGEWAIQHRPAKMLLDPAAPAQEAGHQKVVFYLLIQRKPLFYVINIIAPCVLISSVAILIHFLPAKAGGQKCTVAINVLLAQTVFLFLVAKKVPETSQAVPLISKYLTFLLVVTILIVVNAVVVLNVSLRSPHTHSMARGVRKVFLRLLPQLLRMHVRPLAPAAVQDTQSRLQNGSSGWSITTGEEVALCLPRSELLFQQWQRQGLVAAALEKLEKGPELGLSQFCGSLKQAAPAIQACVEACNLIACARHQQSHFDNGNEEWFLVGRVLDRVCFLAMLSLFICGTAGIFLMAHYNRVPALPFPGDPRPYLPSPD
nicotinic acetylcholine α1 (bungarotoxin) receptor, sequence (P02708 21-457): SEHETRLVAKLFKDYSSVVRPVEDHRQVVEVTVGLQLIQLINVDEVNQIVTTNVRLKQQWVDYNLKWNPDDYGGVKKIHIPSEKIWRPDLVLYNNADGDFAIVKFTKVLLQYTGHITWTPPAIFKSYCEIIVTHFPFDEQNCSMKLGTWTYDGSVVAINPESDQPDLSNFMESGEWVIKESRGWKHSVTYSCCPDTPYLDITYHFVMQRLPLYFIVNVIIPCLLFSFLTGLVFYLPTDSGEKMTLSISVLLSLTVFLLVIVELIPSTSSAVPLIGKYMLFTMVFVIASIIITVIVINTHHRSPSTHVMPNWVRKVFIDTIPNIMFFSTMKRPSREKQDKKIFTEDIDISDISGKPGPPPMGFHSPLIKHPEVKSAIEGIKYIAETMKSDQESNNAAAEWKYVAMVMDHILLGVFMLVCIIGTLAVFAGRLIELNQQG
nicotinic acetylcholine α1 (bungarotoxin) receptor, sequence (Q07001 22-517): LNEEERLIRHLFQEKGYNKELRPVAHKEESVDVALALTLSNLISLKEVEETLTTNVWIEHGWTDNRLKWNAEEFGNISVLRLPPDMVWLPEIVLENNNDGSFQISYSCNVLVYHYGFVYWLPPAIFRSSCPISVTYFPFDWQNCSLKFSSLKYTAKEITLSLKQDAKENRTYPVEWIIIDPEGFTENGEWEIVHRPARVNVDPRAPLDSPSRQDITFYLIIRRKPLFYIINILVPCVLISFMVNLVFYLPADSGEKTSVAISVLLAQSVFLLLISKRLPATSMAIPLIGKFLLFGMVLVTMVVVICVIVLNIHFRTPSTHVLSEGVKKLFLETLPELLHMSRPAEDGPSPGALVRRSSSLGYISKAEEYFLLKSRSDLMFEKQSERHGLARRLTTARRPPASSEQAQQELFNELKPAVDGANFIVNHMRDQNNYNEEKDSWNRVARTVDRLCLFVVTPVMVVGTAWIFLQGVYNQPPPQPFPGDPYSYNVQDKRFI
nicotinic acetylcholine α1 (bungarotoxin) receptor, sequence (P11230 24-501, further chain): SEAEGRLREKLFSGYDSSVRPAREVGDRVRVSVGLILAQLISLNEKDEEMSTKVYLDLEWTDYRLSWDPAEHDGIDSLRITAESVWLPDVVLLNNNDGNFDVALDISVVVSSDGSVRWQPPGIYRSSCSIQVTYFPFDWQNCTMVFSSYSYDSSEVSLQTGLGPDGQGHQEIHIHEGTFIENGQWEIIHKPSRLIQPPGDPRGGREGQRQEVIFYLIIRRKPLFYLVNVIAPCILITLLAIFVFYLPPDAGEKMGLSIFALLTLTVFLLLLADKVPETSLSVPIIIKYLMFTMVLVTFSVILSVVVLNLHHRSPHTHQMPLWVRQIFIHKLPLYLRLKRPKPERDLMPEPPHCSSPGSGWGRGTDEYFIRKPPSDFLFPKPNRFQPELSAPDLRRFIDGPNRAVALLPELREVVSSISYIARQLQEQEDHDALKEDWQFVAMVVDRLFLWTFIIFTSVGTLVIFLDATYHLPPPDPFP

[16] = system: ZR-75-1 human breast carcinoma xenograft; assay: ZR-75-1 human breast carcinoma xenograft model, daily dosing for 21 days; assay type: in vivo, mouse; settings: 4 mg/kg IV daily for 21 days, nu/nu mice
Procedure: Efficacy of GO-203-2c was evaluated in a ZR-75-1 human breast carcinoma xenograft model. Female nu/nu mice (20-30 g; Charles River Laboratories, Wilmington, Mass.) were injected in the thigh with 5 million ZR-75-1 cells in Matrigel suspension. Mice also received subcutaneous 17-β-estradiol pellets. When tumors reached 100-200 mm^3 in size (approximately 12-15 days after implantation), mice were split into 4 groups of 5 mice and administered the following treatments daily for 21 days: phosphate-buffered saline (PBS) IP, 1 mg/kg GO-203-2c IV, 4 mg/kg GO-203-2c IV or 4 mg/kg control peptide CP-3 IV. Each animal was sacrificed when the tumor reached the predetermined endpoint size (˜2500 mm^3) or when the animals remained tumor-free for 180 days after implantation of the tumor cells.

[17] = biological target: T2, norepinephrine transporter; settings: at a concentration of 10 μM
[18] = biological target: T3, muscarinic M2 receptor; settings: at a concentration of 10 μM
[19] = up to 90 to 100 days post treatment initiation

Compound: C[C@@H](NC(=O)[C@@H](CCC(N)=O)NC(=O)[C@@H](C)NC(=O)[C@@H](CCCNC(=N)N)NC(=O)[C@@H](CCCNC(=N)N)NC(=O)[C@@H](CCCNC(=N)N)NC(=O)[C@@H](CCCNC(=N)N)NC(=O)[C@@H](CCCNC(=N)N)NC(=O)[C@@H](CCCNC(=N)N)NC(=O)[C@@H](CCCNC(=N)N)NC(=O)[C@@H](CCCNC(=N)N)NC(=O)[C@H](N)CCCNC(=N)N)C(=O)N[C@H](CCCNC(=N)N)C(=O)N[C@H](CCCNC(=N)N)C(=O)N[C@H](CCCCN)C(=O)N[C@H](CC(N)=O)C(=O)O [CP-2, reference compound] (H-[dR][dR][dR][dR][dR][dR][dR][dR][dR][dA][dQ][dA][dR][dR][dK][dN]-OH)
- Tumor response [1]: without effect
- Tumor response [2]: without effect
- Tumor response [3]: without effect
- Side effects of treatment (weight, clinical signs of toxicity) [4]: no observable side effects

Compound: CC(=O)N[C@H](CCCNC(=N)N)C(=O)N[C@H](CCCNC(=N)N)C(=O)N[C@H](CCCNC(=N)N)C(=O)N[C@H](CCCNC(=N)N)C(=O)N[C@H](CCCNC(=N)N)C(=O)N[C@H](CCCNC(=N)N)C(=O)N[C@H](CCCNC(=N)N)C(=O)N[C@H](CCCNC(=N)N)C(=O)N[C@H](CCCNC(=N)N)C(=O)N[C@H](CS)C(=O)N[C@H](CCC(N)=O)C(=O)N[C@H](CS)C(=O)N[C@H](CCCNC(=N)N)C(=O)N[C@H](CCCNC(=N)N)C(=O)N[C@H](CCCCN)C(=O)N[C@H](CC(N)=O)C(N)=O [GO-203-2] (Ac-[dR][dR][dR][dR][dR][dR][dR][dR][dR][dC][dQ][dC][dR][dR][dK][dN]-NH2)
- Avg (viable cell number of Groups 1-3) [5]: 8.06
- % inhibition ([5]; vs untreated control): 65.49%
- Group-1 (viable cell number, individual well) ([5]; well having 10,000 cells): 7.14
- Group-2 (viable cell number, individual well) ([5]; well having 10,000 cells): 9.38
- Group-3 (viable cell number, individual well) ([5]; well having 10,000 cells): 7.67
- Avg (viable cell number of Groups 1-3) [6]: 6.66
- % inhibition ([6]; vs untreated control): 63.64%
- Group-1 (viable cell number, individual well) ([6]; well having 10,000 cells): 6.23
- Group-2 (viable cell number, individual well) ([6]; well having 10,000 cells): 6.34
- Group-3 (viable cell number, individual well) ([6]; well having 10,000 cells): 7.42
- 50% inhibition (IC50) of proliferation [7]: 5 to 11 µg/mL
- IC50 [7]: 2 to 5 µM
- Tumor response [1]: complete tumor growth arrest and regression
- Recurrence of tumors [1, 19]: no evidence of recurrence
- Tumor response [2]: complete growth arrest and regression
- Recurrence of tumors [2, 19]: no evidence of recurrence
- Tumor response [3]: complete tumor growth arrest and regression
- Recurrence of tumors [3, 19]: no evidence of recurrence
- Inhibition of MUC1-CD oligomerization, reduced vs oxidized form [8]: much more effective
- Inhibition of oligomerization of purified His-tagged MUC1-CD [9]: inhibited
- Inhibition of MUC1-CD oligomerization [10]: in an equivalent manner
- Side effects of treatment (weight, clinical signs of toxicity) [4]: no observable side effects
- IC50 [11]: 3 to 8 µM
- IC50 [12]: 3 to 8 µM
- IC50 [13]: 3 to 8 µM
- IC50 [14]: 3 to 8 µM
- IC50 [15]: 3 to 8 µM

Compound: CP-3: control peptide containing AQA instead of CQC amino acid sequence in the binding domain (RRRRRRRRRCQCRRKN) [reference compound]
- Tumor response [16]: ineffective
- Tumor response ([16]; listed as CP3): no effect on tumor growth
- % inhibition of radioligand binding [17]: 79%
- % inhibition of radioligand binding [18]: 55%

Reference: patent US8685928B2, “Antagonists of MUC1” (Dana-Farber Cancer Institute, Inc., priority 2010, dated 2014)
